This note sets out measurements from patent US20210369740A1, “Synthesis of Anti-inflammatory and Anti-cancer Agents through Fungal Transformation of Mibolerone” (priority 2021, published 2021).

Structures can show the parent of a compound that is named as a salt. Where two headings read alike, the source gives them in different places.

The target of data set [1] is T1, human placental aromatase enzyme (Homo sapiens, UniProt P11511).
T1 construct: from tissue; host or cells: human placenta
T1 sequence (P11511 1-503): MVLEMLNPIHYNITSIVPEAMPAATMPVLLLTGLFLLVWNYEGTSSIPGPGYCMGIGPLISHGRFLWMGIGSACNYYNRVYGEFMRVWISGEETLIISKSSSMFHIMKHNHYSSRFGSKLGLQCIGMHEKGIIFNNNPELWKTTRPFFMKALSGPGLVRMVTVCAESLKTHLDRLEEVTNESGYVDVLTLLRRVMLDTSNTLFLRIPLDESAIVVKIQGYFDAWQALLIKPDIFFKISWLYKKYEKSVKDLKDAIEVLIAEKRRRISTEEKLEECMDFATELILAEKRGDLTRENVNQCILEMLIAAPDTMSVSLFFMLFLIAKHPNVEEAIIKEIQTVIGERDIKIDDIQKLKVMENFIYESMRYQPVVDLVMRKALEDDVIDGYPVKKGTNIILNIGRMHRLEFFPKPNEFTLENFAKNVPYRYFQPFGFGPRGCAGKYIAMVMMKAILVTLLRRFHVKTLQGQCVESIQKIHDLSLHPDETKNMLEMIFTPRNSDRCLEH
The data set can be described thus: Human placental aromatase inhibition assay. In kind it is biochemical.

In data set [2] the test system is nitric oxide (NO) production. The data set can be described thus: Nitric oxide assay (LPS-induced J774.2 macrophages, Griess method). Format: cell-based, mouse. On the technique in general: Griess reagent forms a coloured azo dye with nitrite.
Data set [3] deals with T-cell proliferation. In words: T-Lymphocyte proliferation assay (PHA-activated PBMCs, Alamar blue). Format: cell-based. The note with it: human PBMC T-cells activated with phytohemagglutinin-L, 48 h, in vitro; for IC50: T-cell, read-out: IC50 against T-cell proliferation.
Data set [4] has as its system TNF-α production. In words: Cytokine inhibition assay (TNF-α by ELISA in LPS-stimulated, PMA-differentiated THP-1 cells). Particulars: for IC50: Homo sapiens, read-out: IC50 against TNF-α production. In kind it is cell-based, human.
A short description of data set [5]: Cytotoxicity against BJ normal cell line. Particulars: human, BJ normal human fibroblast cells.
Setting [6] is: testosterone to 17β-estradiol conversion, in vitro, read-out: IC50 against human placental aromatase enzyme.
Where [7] appears, read: Mus musculus, J774.2, read-out: IC50 against nitric oxide (NO) production.
[8] abbreviates: J774.2 mouse macrophages, LPS-induced, in vitro, read-out: IC50 against nitric oxide (NO) production.
Where [9] appears, read: THP-1 cells differentiated with PMA, LPS-stimulated, 4 h, in vitro.

Regarding `C[C@@H]1C[C@H]2C[C@H](O)CC[C@]2(O)[C@H]2CC[C@@]3(C)[C@@H](CC[C@]3(C)O)[C@H]12` [Compound 4, 3α,10β,17β-trihydroxy-7α,17α-dimethyl-5α-estrane], the IC50 was 0.072 ± 0.001 µM in data set [1] (setting [6]); 58 ± 0.1 µM in data set [2] (setting [7]); 28.5 ± 0.07 µM in data set [4] (THP-1, 4 h). In data set [3], the “IC50 against T-cell proliferation” value was “inactive”.
In the case of `C[C@]12C=CC(=O)C=C1CC[C@@H]1[C@@H]2[C@@H](O)C[C@@]2(C)[C@H]1CC[C@]2(O)C(=O)CO` [prednisolone, reference compound], the IC50 in data set [3] amounted to 9.75 ± 0.03 µM.
Take `C[C@@H]1CC2=CC(=O)CC[C@@H]2[C@H]2CC[C@@]3(C)[C@@H](CC[C@]3(C)O)[C@@H]21` [Compound 1, Mibolerone]: the IC50 in data set [1] was 0.372 ± 0.009 µM; in data set [2] (setting [8]) it was 46 ± 2.4 µM; in data set [3] it was 6.55 ± 0.6 µM; in data set [5], 80 ± 2.1 µM; in data set [4] (setting [9]) it was 115.8 ± 0.7 µM.
Regarding `C[C@@H]1C(=O)C2CC(=O)CC[C@@H]2[C@H]2CC[C@@]3(C)[C@@H](CC[C@]3(C)O)[C@@H]21` (stereo partly drawn) [Compound 5, 17β-hydroxy-7α,17α-dimethyl-5α-estrane-3,6-dione], the “IC50 against human placental aromatase enzyme” value in data set [1] (testosterone to 17β-estradiol conversion, in vitro) was “inactive”. Also, the IC50 in data set [2] (setting [8]) was determined as 52.7 ± 0.3 µM. Moreover, the “IC50 against T-cell proliferation” value in data set [3] was “inactive”. For the same compound, the “IC50 against TNF-α production” value in data set [4] (setting [9]) was “inactive”.
Consider `CNC(=N)NCCC[C@H](N)C(=O)O` [L-NMMA, NG-Monomethyl-L-arginine, monoacetate salt, reference compound], for which the IC50 in data set [2] (setting [8]) came to 128.2 ± 0.8 µM.
For the compound `CC(=O)CCCCn1c(=O)c2c(ncn2C)n(C)c1=O` [pentoxifylline, reference compound], the IC50 in data set [4] (THP-1, 4 h) turned out to be 341 ± 2.1 µM.
On to `C[C@@H]1Cc2cc(O)ccc2[C@@H]2[C@@H]1[C@@H]1CC[C@](C)(O)[C@@]1(C)C[C@@H]2O` [Compound 3, 11β,17β-dihydroxy-7α,17α-dimethyl-estra-1,3,5-triene-3-one], for which the IC50 in data set [1] (setting [6]) amounted to 0.317 ± 0.012 µM; in data set [2] (setting [7]), 49.1 ± 0.4 µM; in data set [3], 4.24 ± 0.2 µM. Also, the “IC50 against TNF-α production” value in data set [4] (setting [9]) was “inactive”.
As to `CC1=CC2=CC(=O)CC[C@@H]2[C@H]2CC[C@@]3(C)[C@@H](CC[C@]3(C)O)[C@H]12` [Compound 2, 17β-hydroxy-7α,17α-dimethylestr-4,6-diene-3-one], the IC50 was 0.31 ± 0.028 µM in data set [1] (setting [6]), 54.4 ± 0.3 µM in data set [2] (setting [8]) and 3.83 ± 0.3 µM in data set [3]. Moreover, the “IC50 against TNF-α production” value in data set [4] (setting [9]) is “inactive”.
